{"source": "patent US9951046B2", "about": "“TRPA1 modulators” (Algomedix, Inc., priority 2014, dated 2018)", "data": [{"target": "T1, human TRPA1 (Homo sapiens, UniProt O75762)", "T1 construct": "expressed in transfected cells", "T1 sequence (O75762 whole entry)": "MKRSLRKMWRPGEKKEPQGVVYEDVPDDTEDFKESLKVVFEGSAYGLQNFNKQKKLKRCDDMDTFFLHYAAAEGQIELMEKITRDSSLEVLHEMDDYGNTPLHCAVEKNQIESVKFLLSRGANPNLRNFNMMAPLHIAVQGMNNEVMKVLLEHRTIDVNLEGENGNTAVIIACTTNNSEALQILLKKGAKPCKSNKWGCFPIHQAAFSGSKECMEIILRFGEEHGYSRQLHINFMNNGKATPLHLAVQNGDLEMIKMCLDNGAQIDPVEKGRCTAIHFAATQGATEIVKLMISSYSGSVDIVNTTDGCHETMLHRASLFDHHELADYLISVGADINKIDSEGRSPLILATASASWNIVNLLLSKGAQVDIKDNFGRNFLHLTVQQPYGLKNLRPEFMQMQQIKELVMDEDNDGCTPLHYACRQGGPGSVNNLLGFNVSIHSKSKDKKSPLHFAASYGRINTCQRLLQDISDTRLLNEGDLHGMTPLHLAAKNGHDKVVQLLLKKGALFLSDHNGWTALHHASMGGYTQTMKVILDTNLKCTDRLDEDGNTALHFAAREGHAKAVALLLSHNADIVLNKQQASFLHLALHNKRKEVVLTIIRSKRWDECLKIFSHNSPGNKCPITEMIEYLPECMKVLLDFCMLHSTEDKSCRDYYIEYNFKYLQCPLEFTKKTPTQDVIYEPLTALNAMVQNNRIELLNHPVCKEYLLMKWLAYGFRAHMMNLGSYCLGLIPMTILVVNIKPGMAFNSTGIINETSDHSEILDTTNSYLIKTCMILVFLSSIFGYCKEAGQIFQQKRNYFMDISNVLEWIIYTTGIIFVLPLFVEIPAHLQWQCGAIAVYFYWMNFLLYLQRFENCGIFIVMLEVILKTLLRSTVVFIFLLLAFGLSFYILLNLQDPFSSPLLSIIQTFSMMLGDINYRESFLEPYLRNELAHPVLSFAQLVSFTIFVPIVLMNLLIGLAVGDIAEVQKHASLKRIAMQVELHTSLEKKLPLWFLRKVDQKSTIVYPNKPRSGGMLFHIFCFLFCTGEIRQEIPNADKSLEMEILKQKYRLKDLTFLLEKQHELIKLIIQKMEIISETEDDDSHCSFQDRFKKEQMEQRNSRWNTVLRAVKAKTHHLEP", "assay": "Cell-based functional intracellular calcium ([Ca2+]i) assay, Fluo-4/Fluo-8, FlexStation, challenge with reference TRPA1 agonist (FFA, AITC or 4-HNE)", "conditions": "HEK293 cells expressing human TRPA1; IC50 class after addition of reference TRPA1 agonist (FFA, AITC or 4-HNE); read-out: human TRPA1-HEK Activity", "summary_of_the_method": "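Doxycycline-induced (1 μg/ml) HEK293 expressing human TRPA1, with 5 μM ruthenium red during induction, loaded with Fluo-4 or Fluo-8 plus 2 mM probenecid; FlexStation read at 20-25° C, sometimes with 0.1% BSA.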", "units": {"IC50": "µM"}, "values": [{"smiles": "CC1CC(n2c(=O)[nH]c3ccc(F)c(F)c32)CC(C)N1C(=O)c1cc(-c2cccnc2)n(-c2cc(F)c(F)c(F)c2)n1", "note": "(centres unmarked) [Compound 203]", "IC50": "> 25"}, {"smiles": "Cc1cc(N2CNC(=O)C23CCN(C(=O)c2cc(-c4cccnc4)n(-c4cc(F)c(F)c(F)c4)n2)CC3)cc(C)c1F", "note": "[Compound 204]", "IC50": "0.001 to 5"}, {"smiles": "CC1CN(C(=O)c2cc(-c3cccnc3)n(-c3cc(F)c(F)c(F)c3)n2)CC(C)C1n1c(=O)[nH]c2ccc(F)c(F)c21", "note": "(centres unmarked) [Compound 207]", "IC50": "> 25"}, {"smiles": "O=C(c1cc(-c2cccnc2)n(-c2cc(F)c(F)c(F)c2)n1)N1CCC(n2c(=O)[nH]c3cccnc32)CC1", "note": "[Compound 208]", "IC50": "0.001 to 5"}, {"smiles": "O=C(c1nn(-c2cc(F)c(F)c(F)c2)c(-c2cccnc2)c1Br)N1CCC2(CC1)C(=O)NCN2c1ccc(F)cc1", "note": "[Compound 210]", "IC50": "0.001 to 5"}, {"smiles": "O=C(c1nn(-c2cc(F)c(F)c(F)c2)c(-c2cccnc2)c1Br)N1CCC(n2c(=O)[nH]c3ccc(F)c(F)c32)CC1", "note": "[Compound 211]", "IC50": "0.001 to 5"}, {"smiles": "N#Cc1ccc(-n2nc(C(=O)N3CCC(n4c(=O)[nH]c5ccc(F)c(F)c54)CC3)cc2-c2cccnc2)cc1", "note": "[Compound 212]", "IC50": "0.001 to 5"}, {"smiles": "N#Cc1ccc(-n2nc(C(=O)N3CCC4(CC3)C(=O)NCN4c3ccc(F)c(F)c3)cc2-c2cccnc2)cc1", "note": "[Compound 213]", "IC50": "0.001 to 5"}, {"smiles": "O=C(c1cc(-c2cccnc2)n(-c2ccc(OC(F)(F)F)c(F)c2)n1)N1CCC2(CC1)C(=O)NCN2c1ccc(F)c(F)c1", "note": "[Compound 214]", "IC50": "0.001 to 5"}, {"smiles": "O=C(c1cc(-c2cccnc2)n(-c2ccc(OC(F)(F)F)c(F)c2)n1)N1CCC(n2c(=O)[nH]c3ccc(F)c(F)c32)CC1", "note": "[Compound 215]", "IC50": "0.001 to 5"}, {"smiles": "N#Cc1ccc(-n2nc(C(=O)N3CCC4(CC3)C(=O)NCN4c3ccc(F)c(F)c3)cc2-c2cccnc2)cc1F", "note": "[Compound 216]", "IC50": "0.001 to 5"}, {"smiles": "CC(C)(C)c1ccc(-n2nc(C(=O)N3CCC4(CC3)C(=O)NCN4c3ccc(F)c(F)c3)cc2-c2cccnc2)cc1", "note": "[Compound 217]", "IC50": "0.001 to 5"}, {"smiles": "O=C(c1cc(-c2cccnc2)n(-c2ccc(C(F)(F)F)cc2Cl)n1)N1CCC2(CC1)C(=O)NCN2c1ccc(F)c(F)c1", "note": "[Compound 218]", "IC50": "0.001 to 5"}, {"smiles": "O=C(c1cc(-c2cccnc2)n(-c2c(Cl)cc(C(F)(F)F)cc2Cl)n1)N1CCC2(CC1)C(=O)NCN2c1ccc(F)c(F)c1", "note": "[Compound 219]", "IC50": "0.001 to 5"}, {"smiles": "O=C(c1cc(-c2cccnc2)n(-c2ccc(OC(F)(F)F)cc2)n1)N1CCC(n2c(=O)[nH]c3ccc(F)c(F)c32)CC1", "note": "[Compound 220]", "IC50": "0.001 to 5"}, {"smiles": "O=C(c1cc(-c2cccnc2)n(-c2ccc(C(F)(F)F)c(F)c2F)n1)N1CCC(n2c(=O)[nH]c3ccc(F)c(F)c32)CC1", "note": "[Compound 222]", "IC50": "0.001 to 5"}, {"smiles": "O=C(c1cc(-c2cccnc2)n(-c2cc(F)c(C(F)(F)F)cc2F)n1)N1CCC(n2c(=O)[nH]c3ccc(F)c(F)c32)CC1", "note": "[Compound 223]", "IC50": "0.001 to 5"}, {"smiles": "N#Cc1ccc(-n2nc(C(=O)N3CCC(n4c(=O)[nH]c5ccc(F)c(F)c54)CC3)cc2-c2cccnc2)cc1F", "note": "[Compound 224]", "IC50": "0.001 to 5"}, {"smiles": "Cc1cc(OC(F)(F)F)ccc1-n1nc(C(=O)N2CCC3(CC2)C(=O)NCN3c2ccc(F)c(F)c2)cc1-c1cccnc1", "note": "[Compound 225]", "IC50": "0.001 to 5"}, {"smiles": "Cc1cc(OC(F)(F)F)ccc1-n1nc(C(=O)N2CCC3(CC2)C(=O)NCN3c2ccc(F)cc2)cc1-c1cccnc1", "note": "[Compound 226]", "IC50": "0.001 to 5"}, {"smiles": "Cc1cc(OC(F)(F)F)ccc1-n1nc(C(=O)N2CCC(n3c(=O)[nH]c4ccc(F)c(F)c43)CC2)cc1-c1cccnc1", "note": "[Compound 227]", "IC50": "0.001 to 5"}, {"smiles": "N#Cc1ccc2c(c1)[nH]c(=O)n2C1CCN(C(=O)c2cc(-c3cccnc3)n(-c3ccc(C(F)(F)F)c(F)c3)n2)CC1", "note": "[Compound 228]", "IC50": "0.001 to 5"}, {"smiles": "N#Cc1ccc2c(c1)[nH]c(=O)n2C1CCN(C(=O)c2cc(-c3cccnc3)n(-c3cc(F)c(F)c(F)c3)n2)CC1", "note": "[Compound 229]", "IC50": "0.001 to 5"}, {"smiles": "O=C1Nc2ccc(F)cc2C2(CCN(C(=O)c3cc(-c4cccnc4)n(-c4ccc(C(F)(F)F)c(F)c4)n3)CC2)O1", "note": "[Compound 230]", "IC50": "0.001 to 5"}, {"smiles": "O=C1Nc2ccc(F)cc2C2(CCN(C(=O)c3cc(-c4cccnc4)n(-c4cc(F)c(F)c(F)c4)n3)CC2)O1", "note": "[Compound 231]", "IC50": "0.001 to 5"}, {"smiles": "N#Cc1cccc2[nH]c(=O)n(C3CCN(C(=O)c4cc(-c5cccnc5)n(-c5cc(F)c(F)c(F)c5)n4)CC3)c12", "note": "[Compound 232]", "IC50": "0.001 to 5"}, {"smiles": "N#Cc1c(F)ccc2[nH]c(=O)n(C3CCN(C(=O)c4cc(-c5cccnc5)n(-c5cc(F)c(F)c(F)c5)n4)CC3)c12", "note": "[Compound 233]", "IC50": "0.001 to 5"}, {"smiles": "N#Cc1cc2[nH]c(=O)n(C3CCN(C(=O)c4cc(-c5cccnc5)n(-c5ccc(C(F)(F)F)c(F)c5)n4)CC3)c2cc1F", "note": "[Compound 234]", "IC50": "0.001 to 5"}, {"smiles": "N#Cc1cc2[nH]c(=O)n(C3CCN(C(=O)c4cc(-c5cccnc5)n(-c5cc(F)c(F)c(F)c5)n4)CC3)c2cc1F", "note": "[Compound 235]", "IC50": "0.001 to 5"}, {"smiles": "O=C(c1cc(-c2cccnc2)n(-c2ccc(C(F)(F)F)cc2C(F)(F)F)n1)N1CCC(n2c(=O)[nH]c3ccc(F)c(F)c32)CC1", "note": "[Compound 236]", "IC50": "0.001 to 5"}, {"smiles": "O=C(c1cc(-c2cccnc2)n(-c2ccc(I)cc2)n1)N1CCC(n2c(=O)[nH]c3ccc(F)c(F)c32)CC1", "note": "[Compound 237]", "IC50": "0.001 to 5"}, {"smiles": "O=C(c1cc(-c2ccc(Cl)nc2)n(-c2ccc(C(F)(F)F)c(F)c2)n1)N1CCC2(CC1)C(=O)NCN2c1ccc(F)cc1", "note": "[Compound 238]", "IC50": "0.001 to 5"}, {"smiles": "O=C(c1cc(-c2ccc(Cl)nc2)n(-c2ccc(C(F)(F)F)c(F)c2)n1)N1CCC(n2c(=O)[nH]c3ccc(F)c(F)c32)CC1", "note": "[Compound 239]", "IC50": "0.001 to 5"}, {"smiles": "N#Cc1ccc2[nH]c(=O)n(C3CCN(C(=O)c4cc(-c5cccnc5)n(-c5ccc(F)c(C(F)(F)F)c5)n4)CC3)c2c1", "note": "[Compound 240]", "IC50": "0.001 to 5"}, {"smiles": "O=C(c1cc(-c2cccnc2)n(-c2ccc(F)c(C(F)(F)F)c2)n1)N1CCC(n2c(=O)[nH]c3ccc(F)c(F)c32)CC1", "note": "[Compound 241]", "IC50": "0.001 to 5"}, {"smiles": "Cc1cc(N2CNC(=O)C23CCN(C(=O)c2cc(-c4cccnc4)n(-c4ccc(F)c(C(F)(F)F)c4)n2)CC3)cc(C)c1F", "note": "[Compound 242]", "IC50": "0.001 to 5"}, {"smiles": "N#Cc1cccc2[nH]c(=O)n(C3CCN(C(=O)c4cc(-c5cccnc5)n(-c5ccc(C(F)(F)F)c(F)c5)n4)CC3)c12", "note": "[Compound 243]", "IC50": "> 25"}, {"smiles": "N#Cc1c(F)ccc2[nH]c(=O)n(C3CCN(C(=O)c4cc(-c5cccnc5)n(-c5ccc(C(F)(F)F)c(F)c5)n4)CC3)c12", "note": "[Compound 244]", "IC50": "5 to 25"}, {"smiles": "N#Cc1cc(C(F)(F)F)ccc1-n1nc(C(=O)N2CCC(n3c(=O)[nH]c4ccc(F)c(F)c43)CC2)cc1-c1cccnc1", "note": "[Compound 245]", "IC50": "> 25"}, {"smiles": "O=C(c1cc(-c2cccnc2)n(-c2ccc(I)cc2)n1)N1CCC2(CC1)C(=O)NCN2c1ccc(F)cc1", "note": "[Compound 246]", "IC50": "0.001 to 5"}, {"smiles": "O=C(c1cc(-c2cccnc2Cl)n(-c2ccc(C(F)(F)F)c(F)c2)n1)N1CCC(n2c(=O)[nH]c3ccc(F)c(F)c32)CC1", "note": "[Compound 247]", "IC50": "> 25"}, {"smiles": "N#Cc1cc(-n2nc(C(=O)N3CCC(n4c(=O)[nH]c5ccc(F)c(F)c54)CC3)cc2-c2cccnc2)ccc1F", "note": "[Compound 248]", "IC50": "0.001 to 5"}, {"smiles": "Cc1cc(N2CNC(=O)C23CCN(C(=O)c2cc(-c4cccnc4)n(-c4ccc(F)c(C#N)c4)n2)CC3)cc(C)c1F", "note": "[Compound 249]", "IC50": "0.001 to 5"}, {"smiles": "O=C(c1cc(-c2cccnc2)n(-c2cc(F)c(F)c(F)c2)n1)N1C2CCC1CC(n1c(=O)[nH]c3ccc(F)c(F)c31)C2", "note": "(centres unmarked) [Compound 250]", "IC50": "> 25"}]}]}
